Measured values reported in ChEMBL document CHEMBL4765253, “Discovery, synthesis, and optimization of an N-alkoxy indolylacetamide against HIV-1 carrying NNRTI-resistant mutations from the Isatis indigotica root” (Eur J Med Chem, 2020).

How the values were obtained:
[1] = test system: HEK-293T; experiment: Cytotoxicity against human HEK 293T cells assessed as reduction in cell viability measured after 48 hrs by Celltiter-glo assay; type: cell-based
[2] = test system: Human immunodeficiency virus 1; experiment: (§1) Antiviral activity against VSVG/wild-type HIV-1 infected in human HEK 293T cells assessed as inhibition of virus replication preincubated with cells for 15 mins prior to viral infection and measured at 48 hrs post-infection by luciferase reporter gene assay; type: functional, organism-based, HEK293T; details: Human immunodeficiency virus 1, HEK-293T
[3] = test system: Human immunodeficiency virus 1; experiment: Antiviral activity against VSVG/wild-type HIV-1 infected in human HEK 293T cells assessed as viral infection at 10 uM preincubated with cells for 15 mins prior to viral infection and measured at 48 hrs post-infection by luciferase reporter gene assay; type: functional, HEK293T; details: time 2895 min, 48.25 h
[4] = test system: HEK-293T; experiment: Cytotoxicity against human HEK 293T cells assessed as cell viability at 30 uM measured after 48 hrs by Celltiter-glo assay; type: cell-based
[5] = Inhibition of RNase H activity of HIV-1 reverse transcriptase using DNA/RNA hybrid as substrate incubated for 30 mins by fluorescence based analysis; set-up: species or system Human immunodeficiency virus 1
[6] = Selectivity index, ratio of CC50 for human HEK 293T cells to EC50 for VSVG/wild type HIV1 infected in human HEK 293T cells; type: toxicity, cell-based; details: read-out: Ratio CC50/EC50
[7] = test system: Human immunodeficiency virus 1; type: functional, organism-based, HEK293T
[8] = test system: Human immunodeficiency virus 1; type: functional, organism-based, HEK293T; details: Human immunodeficiency virus 1, HEK-293T
[9] = test system: Human immunodeficiency virus 1; experiment: as §1, with “VSVG/HIV-1 harboring reverse transcriptase V108I/K103N double mutant” for “VSVG/wild-type HIV-1”; type: functional, organism-based, HEK293T; details: hek293t
[10] = test system: Human immunodeficiency virus 1; experiment: as §1, with “VSVG/HIV-1 harboring reverse transcriptase L100I/K103N double mutant” for “VSVG/wild-type HIV-1”; type: functional, organism-based; details: hek293t
[11] = test system: Human immunodeficiency virus 1; experiment: (§2) Antiviral activity against VSVG/HIV-1 harboring reverse transcriptase K103N mutant infected in human HEK 293T cells assessed as inhibition of virus replication preincubated with cells for 15 mins prior to viral infection and measured at 48 hrs post-infection by luciferase reporter gene assay; type: functional, organism-based, HEK293T
[12] = test system: Human immunodeficiency virus 1; experiment: as §2, with “G190A/K103N double” for “K103N”; type: functional, organism-based, HEK293T; details: hek293t
[13] = Inhibition of HIV-1 reverse transcriptase RNA-dependent DNA polymerase activity assessed as reduction in dTTP incorporation using poly(rA)/oligo(dT) as template/primer incubated for 1 hr followed by transferring into streptavidin plate for 1 hr by absorbance based analysis; set-up: species or system Human immunodeficiency virus 1
[14] = test system: Human immunodeficiency virus 1; type: functional, organism-based, HEK293T; details: hek293t
[15] = Human immunodeficiency virus 1, HEK-293T

SMILES | CC50 [1] [µM] | EC50 [2] [µM] | Activity [3] [%] | Activity [4] [%] | selectivity ratio [6] | other results
COn1cc(CC(=O)Nc2ccc([N+](=O)[O-])cc2)c2ccccc21 | > 30 | > 10 | 81.41 | 54 | – | –
COn1cc(CC(=O)Nc2cccc(Cl)c2)c2ccccc21 | > 30 | > 10 | 113 | 61.02 | – | –
COc1ccccc1NC(=O)Cc1cn(OC)c2ccccc12 | > 30 | > 10 | 71.46 | 59.57 | – | –
COC(=O)c1ccccc1NC(=O)Cc1cn(OC)c2ccccc12 | – | – | – | – | – | IC50 [5]: > 30 µM
CCCCCCCCOn1cc(CC(=O)Nc2ccccc2Cl)c2ccccc21 | 22.9 | 4.4 | – | – | 5.21 | –
CCOn1cc(CC(=O)Nc2ccccc2Cl)c2ccccc21 | 20.8 | 0.86 | – | – | 24.2 | –
O=C(Cc1cn(OC(=O)c2ccccc2)c2ccccc12)Nc1ccccc1Cl | 29.4 | > 10 | 113.06 | – | – | –
CCCOn1cc(CC(=O)Nc2ccncn2)c2ccccc21 | 17.9 | 3.3 | – | – | 5.43 | –
CCCCCCCOn1cc(CC(=O)Nc2ccccc2Cl)c2ccccc21 | 23.9 | 1.95 | – | – | 12.2 | –
CCCCCOn1cc(CC(=O)Nc2ccccc2Cl)c2ccccc21 | 18.7 | 0.63 | – | – | 29.7 | –
CCCCCCCCCOn1cc(CC(=O)Nc2ccccc2Cl)c2ccccc21 | 28.9 | > 10 | 58.3 | – | – | –
COn1cc(CC(=O)Nc2ccccc2C)c2ccccc21 | > 30 | > 10 | 53.31 | 62.74 | – | –
CC(=O)On1cc(CC(=O)Nc2ccccc2Cl)c2ccccc21 | 28.1 | > 10 | 146.89 | – | – | –
COn1cc(CC(=O)Nc2ccccn2)c2ccccc21 | > 30 | > 10 | 138.11 | 63.67 | – | –
COn1cc(CC(=O)Nc2cc(C)cc(C)c2)c2ccccc21 | > 30 | > 10 | 87.28 | 62.62 | – | –
COn1cc(CC(=O)Nc2ccccc2F)c2ccccc21 | 28.6 | > 10 | 72.89 | – | – | –
COn1cc(CC(=O)Nc2ccccc2I)c2ccccc21 | > 30 | 4.4 | – | 67.04 | > 6.82 | –
CCc1ccccc1NC(=O)Cc1cn(OC)c2ccccc12 | > 30 | > 10 | 64.33 | 68.5 | – | –
CCCCCOn1cc(CC(=O)Nc2ccncc2Cl)c2ccccc21 | 22 | 0.13 | – | – | 169 | –

SMILES | CC50 [1] [µM] | EC50 [2] [µM] | Activity [3] [%] | Activity [4] [%] | selectivity ratio [6] | other results
COn1cc(CC(=O)Nc2ccncc2Cl)c2ccccc21 | 20 | 0.53 | – | – | 37.7 | –
Cc1ccnc2c1NC(=O)c1cccnc1N2C1CC1 [NEVIRAPINE] | > 30 | – | – | 93.26 | – | EC50 [7, 15]: 80 µM; EC50 [8]: > 100 µM; EC50 [9]: 2.87 µM; EC50 [10]: 0.76 µM; EC50 ([11]; hek293t): 1.4 µM; EC50 [12]: 14.6 µM
CCCOn1cc(CC(=O)Nc2ccncc2Cl)c2ccccc21 | 16.4 | 0.06 | – | – | – | IC50 [5]: > 100 µM; EC50 ([7]; hek293t): 1.85 µM; IC50 [13]: 0.11 µM; EC50 [9]: 1.27 µM; EC50 [10]: 1.18 µM; EC50 [11, 15]: 0.7 µM; EC50 [12]: 1.38 µM; EC50 [14]: 0.18 µM
COn1cc(CC(=O)Nc2ccc(C)cc2)c2ccccc21 | > 30 | > 10 | 124.35 | 52.47 | – | –
COn1cc(CC(=O)Nc2ccccc2Br)c2ccccc21 | > 30 | 3.2 | – | 83.48 | > 9.38 | –
CCCOn1cc(Cc2ccncc2Cl)c2ccccc21 | > 30 | > 10 | 65.67 | 67.37 | – | –
COC(=O)c1ccccc1NC(=O)CCc1cn(OC)c2ccccc12 | 26.8 | > 10 | 74.25 | – | – | –
COc1cccc(NC(=O)Cc2cn(OC)c3ccccc23)c1 | > 30 | > 10 | 104.29 | 86.68 | – | –
O=C(Cc1cn(OCCc2ccccc2)c2ccccc12)Nc1ccccc1Cl | > 30 | 5.5 | – | 49.31 | > 5.45 | –
CCOC(=O)c1ccccc1NC(=O)Cc1cn(OC)c2ccccc12 | 29.1 | > 10 | 60.76 | – | – | –
COc1cc(NC(=O)Cc2cn(OC)c3ccccc23)cc(OC)c1OC | 13.9 | > 10 | 47.94 | – | – | –
CCCOn1cc(Cc2c(Cl)cncc2Cl)c2ccccc21 | > 30 | > 10 | 93.41 | 77.47 | – | –
COc1ccc(NC(=O)Cc2cn(OC)c3ccccc23)cc1 | > 30 | > 10 | 128.61 | 86.09 | – | –
COn1cc(CC(=O)Nc2ccc(C)c(C)c2)c2ccccc21 | > 30 | > 10 | 95.02 | 51.62 | – | –
CCOn1cc(CC(=O)Nc2ccccc2C(=O)OC)c2ccccc21 | > 30 | 5.7 | – | 52.76 | > 5.26 | –
COC(=O)c1cccc(NC(=O)Cc2cn(OC)c3ccccc23)c1 | > 30 | > 10 | 109.33 | 50.46 | – | –
COC(=O)c1ccc(NC(=O)Cc2cn(OC)c3ccccc23)cc1 | > 30 | > 10 | 104.33 | 72.64 | – | –
O=C(Cc1cn(OCc2ccccc2)c2ccccc12)Nc1ccccc1Cl | 16.5 | 8.55 | – | – | 1.93 | –
COC(=O)c1ccccc1NC(=O)Cc1cn(O)c2ccccc12 | 24.6 | > 10 | 107.1 | – | – | –

SMILES | CC50 [1] [µM] | EC50 [2] [µM] | Activity [3] [%] | Activity [4] [%] | selectivity ratio [6] | other results
CCCCOn1cc(CC(=O)Nc2ccccc2Cl)c2ccccc21 | 29.1 | 0.64 | – | – | 45.5 | –
CCCCCCOn1cc(CC(=O)Nc2ccccc2Cl)c2ccccc21 | > 30 | 1.02 | – | 56.95 | > 29.4 | –
COn1cc(CC(=O)Nc2ccncc2Br)c2ccccc21 | 18.6 | 0.66 | – | – | 28.1 | –
COc1cc(NC(=O)Cc2cn(OC)c3ccccc23)cc(OC)c1 | 21.6 | > 10 | 98.07 | – | – | –
COn1cc(CC(=O)Nc2ccncc2)c2ccccc21 | 14.3 | 4.95 | – | – | 2.88 | –
CCCOn1cc(CC(=O)Nc2ccncc2F)c2ccccc21 | 14.1 | 0.33 | – | – | 42.8 | –
COn1cc(CC(=O)Nc2ccccc2)c2ccccc21 | 28 | > 10 | 113.22 | – | – | –
CCCOn1cc(CC(=O)Nc2ccccc2C(=O)OC)c2ccccc21 | > 30 | 6.7 | – | 55.39 | > 4.48 | –
CCCOn1cc(Cc2ccncc2)c2ccccc21 | > 30 | > 10 | 99.48 | 69.96 | – | –
COC(=O)c1ccccc1NC(=O)CCCc1cn(OC)c2ccccc12 | > 30 | > 10 | 82.07 | 61.31 | – | –
COC(=O)c1ccccc1NC(=O)CC1CNc2ccccc21 (stereo unspecified) | > 30 | > 10 | 82.96 | 71.46 | – | –
COn1cc(CC(=O)Nc2cccnc2)c2ccccc21 | > 30 | > 10 | 118.26 | 78.7 | – | –
CCCCCCCCCCOn1cc(CC(=O)Nc2ccccc2Cl)c2ccccc21 | > 30 | > 10 | 97.73 | 52.8 | – | –
COn1cc(CC(=O)Nc2ccc(Cl)cc2)c2ccccc21 | > 30 | > 10 | 103.55 | 51.01 | – | –
COc1ccc(COn2cc(CC(=O)Nc3ccccc3Cl)c3ccccc32)cc1 | 20.3 | > 10 | 73.2 | – | – | –
COC(=O)c1ccccc1NC(=O)Cc1c[nH]c2ccccc12 | > 30 | > 10 | 91.98 | 65.5 | – | –
COn1cc(CC(=O)Nc2ccccc2Cl)c2ccccc21 | 27.8 | 3.3 | – | – | 8.42 | –
CCCOn1cc(CC(=O)Nc2ccccc2C(F)(F)F)c2ccccc21 | 24.9 | 4.28 | – | – | 5.81 | –
